Experimental data from patent US8518965B2, “Compositions and methods for treating cancer” (Trustees of Dartmouth College, priority 2009, dated 2013).

How the values were obtained:
in vivo = details: C3H/HeN, mouse, ip
Protocol: The MTD40 (maximum tolerated dose at day 40) values were determined on normal C3H/HeN mice using standard procedures. […] The result of this exercise was two dosages, one apparently nonlethal and the other lethal, if severe and irreversible toxicity occurred and euthanasia was required. Six mice were dosed at each dosage. If no severe and irreversible toxicity occurred at the lower dosage and at least one with severe and irreversible toxicity at the higher dose, then the lower dose was considered to be the MTD.
Compounds were administered to C3H/HeN mice by intraperitoneal injection (5% alcohol, 5% CREMOPHOR® EL, and 90% saline, 0.5 ml/20 gram, single injection). Drug toxicity was evaluated on mice checked daily for 40 days. The toxicity parameters reported were the MTD40. […] At the end of experiment, all mice were euthanized.
The toxicity parameters reported were the MTD40. At the end of experiment, all mice will be euthanized.

[1] = tested on: SF 295 human glioblastoma cells; assay: Colony formation assay, SF 295 cells; format: cell-based
Protocol: (§1) NCI/ADR-RES human breast cancer cells (500 cells), HCT116 human colon cancer cells (400 cells) or SF 295 human glioblastoma cells (1000 cells) were plated in 60 mm Petri dishes containing 2.7 ml of medium (modified McCoy's 5a medium containing 10% fetal bovine serum and 100 units/ml penicillin and 100 μg/ml streptomycin). The cells were incubated in a CO2 incubator at 37° C. for 5 hours for attachment to the bottom of Petri dishes. Compounds were prepared fresh in medium at ten times the final concentration, and then 0.3 ml of this stock solution was added to the 2.7 ml of medium in the dish. The cells were then incubated with compounds for 72 hours at 37° C. At the end of incubation, the compound-containing media were decanted, the dishes were rinsed with 4 ml of Hank's Balance Salt Solution (HBSS), 5 ml of fresh medium was added, and the dishes were returned to the incubator for colony formation. The cell colonies were counted using a colony counter after incubation for 14 days for NCI/ADR-RES cells and 10 days for HCT116 cells and SF 295 cells. Cell survival was calculated and the IC50 values (the drug concentration producing 50% inhibition of colony formation) were determined for each tested compound.
One thousand SF 295 cells were plated in 60 mm Petri dishes containing 2.7 ml of medium (modified McCoy's 5a medium containing 10% fetal bovine serum and 100 units/ml penicillin and 100 μg/ml streptomycin). The cells were incubated in a CO2 incubator at 37° C. for 5 hours for attachment to the bottom of Petri dishes. Compounds were prepared fresh in medium at ten times the final concentration, and then 0.3 ml of this stock solution was added to the 2.7 ml of medium in the dish. The cells were then incubated with the compounds for 72 hours at 37° C. At the end of incubation, the compound-containing media were decanted, the dishes were rinsed with 4 ml of Hank's Balance Salt Solution (HBSS), 5 ml of fresh medium was added, and the dishes were returned to the incubator for colony formation. After incubation for 10 days, the cell colonies were counted using a colony counter. Cell survival was calculated and the values of IC50 were determined for each compound tested.

[2] = tested on: HCT116 human colon cancer cells; assay: Colony formation assay, HCT116 cells; format: cell-based
Protocol: as §1
Four hundred HCT116 cells were plated in 60 mm Petri dishes containing 2.7 ml of medium (modified McCoy's 5a medium containing 10% fetal bovine serum and 100 units/ml penicillin and 100 μg/ml streptomycin). The cells were incubated in a CO2 incubator at 37° C. for 5 hours for attachment to the bottom of Petri dishes. Compounds were prepared fresh in medium at ten times the final concentration, and then 0.3 ml of this stock solution was added to the 2.7 ml of medium in the dish. The cells were then incubated with drugs for 72 hours at 37° C. At the end of incubation the compound-containing media were decanted, the dishes were rinsed with 4 ml of Hank's Balance Salt Solution (HBSS), 5 ml of fresh medium was added, and the dishes were returned to the incubator for colony formation. HCT116 cell colonies were counted using a colony counter after […] of incubation. Cell survival was calculated and IC50 values were determined for each compound tested.

c1ccc2c(Nc3ccc(Oc4ccc(Nc5c6ccccc6nc6ccccc56)cc4)cc3)c3ccccc3nc2c1 [Compound D11B]
MTD at 40 days (in vivo): 450 mg/kg
IC50 ([1]; Homo sapiens, SF 295 cells, 72 hours with compound, colonies counted after 10 days, read-out: IC50 (nM) Glioblastoma): 177 nM
IC50 values lower for glioblastoma cells as compared to breast cancer cells ([1]; glioblastoma vs breast cancer cells): approximately 10 fold
IC50 ([2]; Homo sapiens, HCT-116, HCT116 cells, 72 hours with compound, colonies counted after 10 days, read-out: IC50 (nM) Colon Cancer): 167 nM
IC50 values lower for colon cells as compared to breast cancer cells ([2]; colon vs breast cancer cells): approximately 10 fold
